Results taken from the supplement of paper PMC10307832.

compound: CCCS(=O)(=O)Nc1ccc(F)c(C(=O)c2c[nH]c3ncc(-c4ccc(Cl)cc4)cc23)c1F [Vemurafenib] + CC(=O)Nc1cccc(-n2c(=O)n(C3CC3)c(=O)c3c(Nc4ccc(I)cc4F)n(C)c(=O)c(C)c32)c1 [Trametinib] (partner 0.02 µM); test: relative viability (nuclei count vs DMSO), 5 days (fraction); higher = more cells survive; conditions: first compound 0.03162 µM
In short: (§1)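 Relative viability was taken as the ratio of nuclei in treated wells to nuclei in vehicle wells. Lung cancer cell lines in 1536-well plates received compounds by pin tool one day after seeding, either one drug alone or a fixed anchor-drug dose plus five library-drug doses (not always all listed) in √10 steps. Nuclei were counted on 4× images after 5 days of treatment, and values are medians of duplicate plates.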

Cell Line	relative viability
NCI-H2126	0.513
EPLC-272H	0.282
NCI-H1755	0.812
NCI-H2023	0.592
NCI-H1650	0.595
NCI-H1793	0.397
NCI-H2342	0.921
H3255	0.589
NCI-H1975	0.328
PC-14	0.735
NCI-H1437	0.474
HOP-62	0.419
HCC-44	1.01
BEN	0.935
LOU-NH91	0.743
NCI-H661	0.522

Cell Line	relative viability
NCI-H1651	0.805
SW 1573	0.556
LK-2	0.889
NCI-H2405	0.622
NCI-H1993	0.5
ChaGo-K-1	0.834
NCI-H1355	0.454
HCC-366	0.346
NCI-H1915	0.308
NCI-H838	0.527
A-427	0.711
NCI-H2009	0.269
EKVX	0.316
NCI-H1792	0.495
NCI-H727	0.407

same assay, conditions: first compound 0.1 µM

Cell Line	relative viability
NCI-H2126	0.535
EPLC-272H	0.323
NCI-H1755	0.73
NCI-H2023	0.489
NCI-H1650	0.406
NCI-H1793	0.387
NCI-H2342	0.747
NCI-H1975	0.327
NCI-H1437	0.538
HOP-62	0.36
HCC-44	1
BEN	1.01
LOU-NH91	0.656
NCI-H661	0.475
NCI-H1651	0.741
SW 1573	0.612
LK-2	0.693
NCI-H2405	0.473
NCI-H1648	0.326
ChaGo-K-1	0.875
NCI-H1355	0.35
HCC-366	0.193
NCI-H1915	0.26
NCI-H838	0.528
A-427	0.702
NCI-H2009	0.272
NCI-H1792	0.482
NCI-H727	0.374

same assay, conditions: first compound 0.3162 µM

Cell Line	relative viability
NCI-H2126	0.564
EPLC-272H	0.338
NCI-H1755	0.761
NCI-H2023	0.597
NCI-H1650	0.633
NCI-H1793	0.467
NCI-H2342	0.978
H3255	0.652
NCI-H1975	0.259
PC-14	0.862
NCI-H1437	0.626
HOP-62	0.416
HCC-44	1.02
BEN	0.638
LOU-NH91	0.642
NCI-H661	0.517
NCI-H1651	0.773
PC-3 [JPC-3]	0.649
SW 1573	0.679
LK-2	1.12
NCI-H1648	0.569
NCI-H1993	0.555
ChaGo-K-1	0.868
NCI-H1355	0.464
NCI-H1915	0.328
NCI-H838	0.257
NCI-H2009	0.21
EKVX	0.406
NCI-H727	0.487

same assay, conditions: first compound 1 µM

Cell Line	relative viability
NCI-H2126	0.543
EPLC-272H	0.331
NCI-H1755	0.763
NCI-H2023	0.699
NCI-H1650	0.577
NCI-H1793	0.591
NCI-H2342	0.769
H3255	0.645
NCI-H1975	0.281
PC-14	0.803
NCI-H1437	0.629
HOP-62	0.594
HCC-44	1.14
BEN	0.811
LOU-NH91	0.861
NCI-H661	0.606
NCI-H1651	0.827

Cell Line	relative viability
PC-3 [JPC-3]	0.802
SW 1573	0.49
LK-2	0.607
NCI-H2405	0.608
NCI-H1648	0.58
NCI-H1993	0.609
ChaGo-K-1	0.898
NCI-H1355	0.523
HCC-366	0.376
NCI-H1915	0.358
NCI-H838	0.548
A-427	0.763
NCI-H2009	0.372
EKVX	0.476
NCI-H1792	0.548
NCI-H727	0.399

compound: COc1cccc2cc(-c3nc([C@H]4CC[C@H](C(=O)O)CC4)n4ncnc(N)c34)[nH]c12 [OSI-027] + Cc1cc(Nc2cc(N3CCN(C)CC3)nc(Sc3ccc(NC(=O)C4CC4)cc3)n2)n[nH]1 [Tozasertib] (partner 0.1 µM); test: as above; conditions: first compound 0.01 µM
In short: as §1

Cell Line	relative viability
NCI-H2126	0.811
EPLC-272H	0.139
NCI-H1755	0.532
NCI-H2023	0.424
NCI-H1623	0.391
NCI-H1650	0.454
NCI-H1793	0.284
NCI-H2342	0.445
H3255	0.749
NCI-H1975	1
PC-14	0.564
NCI-H1437	0.418
HOP-62	0.382
HCC-44	0.945
BEN	0.566
LOU-NH91	0.656
NCI-H661	0.357

Cell Line	relative viability
NCI-H1651	0.669
PC-3 [JPC-3]	1.03
SW 1573	0.186
LK-2	0.186
NCI-H2405	0.754
NCI-H1648	0.412
NCI-H1993	0.574
ChaGo-K-1	0.208
NCI-H1355	0.546
HCC-366	0.13
NCI-H1915	0.488
NCI-H838	0.307
A-427	0.231
NCI-H2009	0.759
ABC-1	0.197
EKVX	0.299
NCI-H727	0.584
